Results as given in US20050048462A1, “Markers and screens” (priority 2001, published 2005).

Key:
Assay type in all cases: cell-based
[1] = test system: GFP-tagged gelsolin in hippocampal neurons; assay: Gelsolin accumulation in dendritic spines, receptor subtype specificity
Description: Imaging was performed at 37° C. in Tyrode's solution pH 7.3, with GFP-optimized filters (Chroma Technologies, Brattleboro, Vt.) and a MicroMax cooled CCD camera (Princeton Instruments, Trenton, N.J.) controlled by Metamorph software (Universal Imaging corporation, West Chester, Pa.). Cells were stimulated by addition of glutamate or NMDA (5 to 10 μM) for up to 30 minutes. In experiments where specific receptor subtypes were blocked, cells were preincubated for 15 minutes with corresponding antagonists.
In these experiments only 2.5 μM glutamate was used.

[2] = test system: hippocampal neurons expressing unmodified GFP; assay: Distribution of unmodified GFP in dendrites after glutamate (control construct); conditions: 10 μM glutamate
Description: (§1) To test this hypothesis we exposed hippocampal neurons expressing GFP-tagged profilin II or profilin I or unmodified GFP to 10 μM glutamate (FIG. 2). […] Glutamate treatment also produced a weaker shift of GFP tagged profilin I into spines (FIG. 2D) which, however, never approached the high levels seen for profilin II.

[3] = test system: cultured hippocampal neurons; conditions: glutamate 100 microM for 30 min
Source text: This is relevant to stroke and epilepsy where hyperstimulation of receptors by released glutamate causes neuronal damage. Thus it appears that profilin II tagging occurs even after events that ultimately lead to apoptosis have been set in motion. In toxicity models, profilin II targeting could thus act as a marker for potentially damaged cells at times before cell death occurs.

[4] = test system: hippocampal neurons expressing GFP-tagged profilin I; assay: Profilin I-GFP redistribution to spines after glutamate; conditions: 10 μM glutamate; compared with profilin II
Description: as §1

[5] = treated with glutamate (2.5 μM) while blocking specific receptor subtypes
[6] = treated with agonists for specific receptor subtypes

| Structure (SMILES) | Accumulation (+) of gelsolin, number of cells [1, 5] | No change (−) of gelsolin, number of cells [1, 5] | Accumulation (+) of gelsolin, number of cells [1, 6] | No change (−) of gelsolin, number of cells [1, 6] | further results |
| --- | --- | --- | --- | --- | --- |
| CC(N)(C(=O)O)c1ccc(C(=O)O)cc1 (racemic) [MCPG, (R, S)-[…]-methyl-4-carboxyphenylglycine] | 3 | 8 |  |  |  |
| Cc1onc(O)c1CC(N)C(=O)O (centres unmarked) [AMPA, amino-3-hydroxy-5-methyl-4-isoxazolepropionic acid] |  |  | 0 | 10 |  |
| N[C@H](CCCP(=O)(O)O)C(=O)O [APV, D(−)-2-amino-5-phosphonopentanoic acid] | 1 | 14 |  |  |  |
| N[C@H](C(=O)O)c1cc(O)cc(O)c1 [DHPG, (S)-3,5-dihydroxyphenylglycine] |  |  | 4 | 7 |  |
| NS(=O)(=O)c1cccc2c1c([N+](=O)[O-])cc1[nH]c(=O)c(=O)[nH]c12 [NBQX, 1,2,3,4-Tetrahydro-6-nitro-2,3-dioxo-benzo[f]quinoxaline-7-sulfonamide] | 7 | 6 |  |  |  |
| CN[C@H](CC(=O)O)C(=O)O [NMDA, N-methyl-D-aspartate] |  |  | 11 | 16 |  |
| N[C@@H](CCC(=O)O)C(=O)O [glutamate] |  |  |  |  | Distribution of unmodified GFP (in words) [2]: did not change the distribution; Number of cells in category − ([2]; GFP construct): 7; Profilin II-GFP targeting despite degenerative changes (in words) [3]: still targeted to punctate sites within dendrites; Time to excitotoxic changes (loss of normal morphology, swelling of dendrites) [3]: ≤ 2 min; Shift of GFP tagged profilin I into spines (in words) [4]: weaker shift |
